Reference: US11795173B1, “Substituted pyridines as PARP1 inhibitors” (Xinthera, Inc., priority 2022, dated 2023)

Tests used:
[1] = biological target: MDR1 (Homo sapiens (Human), UniProt P08183); assay: In vitro human transporter efflux, MDCKII cells expressing MDR1; assay type: in vitro ADME; conditions: for Papp A→B at 2 h, 10 μM: MDCK-MDR1, pH 7.4, apical-to-basolateral, pH7.4, read-out: MDCK-MDR1 Papp AB; for Papp A→B at 2 h, 10 μM / Papp B→A at 2 h, 10 μM: 2-hour incubation; for Papp B→A at 2 h, 10 μM: MDCK-MDR1, pH 7.4, basolateral-to-apical, pH7.4, read-out: MDCK-MDR1 Papp BA; for efflux ratio at 2 h, 10 μM: MDCK-MDR1, pH 7.4, efflux ratio Papp BA/Papp AB
Chain of MDR1 (P08183 whole entry): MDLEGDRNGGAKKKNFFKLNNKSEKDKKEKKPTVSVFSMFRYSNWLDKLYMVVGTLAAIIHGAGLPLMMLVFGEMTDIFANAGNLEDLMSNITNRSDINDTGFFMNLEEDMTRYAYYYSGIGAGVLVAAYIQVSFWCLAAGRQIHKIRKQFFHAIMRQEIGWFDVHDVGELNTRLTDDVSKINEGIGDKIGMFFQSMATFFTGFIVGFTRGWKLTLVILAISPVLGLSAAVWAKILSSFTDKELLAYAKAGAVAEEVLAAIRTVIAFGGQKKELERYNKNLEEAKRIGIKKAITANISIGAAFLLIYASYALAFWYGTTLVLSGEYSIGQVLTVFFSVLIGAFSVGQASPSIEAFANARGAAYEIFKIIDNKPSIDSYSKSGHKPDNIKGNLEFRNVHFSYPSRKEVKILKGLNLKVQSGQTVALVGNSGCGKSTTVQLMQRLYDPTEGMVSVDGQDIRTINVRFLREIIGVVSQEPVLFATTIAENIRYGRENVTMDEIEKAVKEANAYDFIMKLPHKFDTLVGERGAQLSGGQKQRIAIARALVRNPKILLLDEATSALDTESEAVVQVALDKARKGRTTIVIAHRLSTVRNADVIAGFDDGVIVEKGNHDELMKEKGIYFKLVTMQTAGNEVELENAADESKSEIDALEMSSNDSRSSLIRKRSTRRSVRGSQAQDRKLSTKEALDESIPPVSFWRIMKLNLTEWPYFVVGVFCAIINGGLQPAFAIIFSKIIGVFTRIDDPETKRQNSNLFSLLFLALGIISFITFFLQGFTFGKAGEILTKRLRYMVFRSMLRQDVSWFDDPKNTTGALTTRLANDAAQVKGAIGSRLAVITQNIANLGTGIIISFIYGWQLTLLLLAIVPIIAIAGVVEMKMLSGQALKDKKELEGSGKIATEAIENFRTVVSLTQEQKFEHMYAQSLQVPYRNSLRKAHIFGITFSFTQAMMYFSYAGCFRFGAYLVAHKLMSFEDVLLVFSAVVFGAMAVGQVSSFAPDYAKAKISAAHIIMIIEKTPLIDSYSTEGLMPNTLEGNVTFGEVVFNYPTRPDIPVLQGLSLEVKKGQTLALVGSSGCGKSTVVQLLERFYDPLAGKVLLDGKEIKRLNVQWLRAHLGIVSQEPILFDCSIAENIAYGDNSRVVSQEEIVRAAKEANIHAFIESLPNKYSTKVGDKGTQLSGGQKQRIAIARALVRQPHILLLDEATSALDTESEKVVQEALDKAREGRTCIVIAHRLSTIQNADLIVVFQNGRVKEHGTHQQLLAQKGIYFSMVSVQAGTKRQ
Description: (§1) Madin-Darby canine kidney (MDCKII) cells expressing either MDR1 or BCRP were seeded onto Corning HTS Transwell® 96-well polycarbonate permeable (0.4 μm pore) supports at a density of 545,000 cells/cm^2. Cells were incubated for 4-8 days prior to assay, and monolayer integrity was assessed by measuring transepithelial electrical resistance (TEER). […] The final organic solvent concentration was 0.5% (v/v). Bidirectional (apical-to-basolateral and basolateral-to-apical) flux of the test and reference compounds was determined over a 2-hour incubation at 37° C. and 5% CO2 with a relative humidity of 95%. At the end of the incubation, samples from the apical and basolateral side were taken and then precipitated with acetonitrile containing internal standard. After centrifugation at 3200×g, supernatants were diluted 1:1 (v/v) with water and subjected to analysis via HPLC-MS/MS.
(§2) Apparent permeability (Papp, ×10^−6 cm/s) was calculated for all transport assays using the following equation: […]
(§3) Efflux ratio was determined by calculating the ratio of the Papp in the basolateral-to-apical direction to the Papp in the apical-to-basolateral direction using the following equation: […]

[2] = biological target: BCRP (Homo sapiens (Human), UniProt Q9UNQ0); assay: In vitro human transporter efflux, MDCKII cells expressing BCRP; assay type: in vitro ADME; conditions: 10 μM, 2-hour incubation; for Papp A→B at 2 h, 10 μM: pH 7.4, apical-to-basolateral, pH7.4, read-out: BCRP Papp AB; for Papp B→A at 2 h, 10 μM: pH 7.4, basolateral-to-apical, pH7.4, read-out: BCRP Papp BA
Chain of BCRP (Q9UNQ0 whole entry): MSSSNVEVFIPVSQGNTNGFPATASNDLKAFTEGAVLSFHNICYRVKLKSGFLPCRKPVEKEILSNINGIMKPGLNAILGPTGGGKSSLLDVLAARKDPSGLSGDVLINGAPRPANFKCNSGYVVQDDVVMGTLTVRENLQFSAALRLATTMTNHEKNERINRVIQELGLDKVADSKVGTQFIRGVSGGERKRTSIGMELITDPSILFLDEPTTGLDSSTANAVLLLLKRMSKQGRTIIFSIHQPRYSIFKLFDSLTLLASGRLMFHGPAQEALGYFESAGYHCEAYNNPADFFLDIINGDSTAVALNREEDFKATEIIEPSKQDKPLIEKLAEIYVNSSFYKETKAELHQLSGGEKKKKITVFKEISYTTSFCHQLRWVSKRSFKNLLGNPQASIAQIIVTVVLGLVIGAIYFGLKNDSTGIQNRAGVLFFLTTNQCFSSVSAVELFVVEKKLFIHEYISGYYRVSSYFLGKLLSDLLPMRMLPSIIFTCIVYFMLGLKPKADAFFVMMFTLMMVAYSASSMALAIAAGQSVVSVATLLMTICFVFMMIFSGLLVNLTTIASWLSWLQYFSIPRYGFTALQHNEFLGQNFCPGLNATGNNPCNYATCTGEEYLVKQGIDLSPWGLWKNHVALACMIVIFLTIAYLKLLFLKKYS
Description: as §1, §2, §3

[3] = tested on: MDA-MB-436 (mutated BRCA1) cells; assay: Cell growth inhibition assay (CellTiter-Glo), MDA-MB-436; assay type: cell-based; conditions: Homo sapiens, MDA-MB-436, 168 h; cell viability, CellTiter Glo 2.0, 7 days
Text: The objective of this study is to evaluate the effect of compound disclosed herein on cell proliferation through the cell viability assay in DLD-1 BRCA2(−/−) and parental isogenic pair and MDA-MB-436 (mutated BRCA1) cell lines. The CellTiter-Glo (CTG) based cell viability assay is designed to determine the number of viable cells in the culture because of compound effect, by quantifying ATP, which indicates the presence of metabolically active cells.
(§4) DLD-1 BRCA2(−/−) and parental isogenic pair were cultured in RPMI 1640 supplemented with 10% fetal bovine serum (FBS), and MDA-MB-436 cells were cultured in DMEM supplemented with 10% FBS. Both are culture at 37° C. with 5% CO2. Invention compounds were distributed to the 384 well plate (Corning, 3764) using Echo acoustic liquid handler to form a 1:3 serially diluted final concentration with top dose of 10 or 30 μM. The cells were seeded into the plate in the density of 50 cells/well (DLD-1 parental), 200 cells/well (DLD-1 BRCA2−/−), or 500 cells/well (MDA-MB-436). After a short spun, the cells were cultured in a well moisturized incubator at 37° C. with 5% CO2 for 7 days without disturbance. The cell viability was measured by CellTiter Glo 2.0 assay kit (Promega, G9243), and growth inhibition rate was calculated and plotted against final compound concentration, and the data were fitted in Xfit to generate IC50.

[4] = tested on: DLD-1 BRCA2(−/−) cells; assay: Cell growth inhibition assay (CellTiter-Glo), DLD-1 BRCA2(−/−); assay type: cell-based; conditions: Homo sapiens, DLD-1, 168 h; cell viability, CellTiter Glo 2.0, 7 days
Description: The objective of this study is to evaluate the effect of compound disclosed herein on cell proliferation through the cell viability assay in DLD-1 BRCA2(−/−) and parental isogenic pair and MDA-MB-436 (mutated BRCA1) cell lines.
as §4, with “Invention compounds were distributed to the 384 well plate (Corning, 3764) using Echo acoustic liquid handler to form a 1:3 serially diluted final concentration with top dose of 10 or 30 μM.” left out

Compound	Papp A→B at 2 h, 10 μM [1] [×10⁻⁶ cm/s]	Papp B→A at 2 h, 10 μM [1] [×10⁻⁶ cm/s]	Papp A→B at 2 h, 10 μM [2] [×10⁻⁶ cm/s]	Papp B→A at 2 h, 10 μM [2] [×10⁻⁶ cm/s]	EC50 [3] [nM]	EC50 [4] [nM]	efflux ratio at 2 h, 10 μM [1]
[2H]C([2H])([2H])NC(=O)c1ccc(N2CCN(Cc3ccc4c5c(c(=O)[nH]c4c3F)CCO5)CC2)c(F)n1 (single isomer, unassigned) [Example 22]	15.1	23.3	28.2	23.6	4.9	6.6	
[2H]C([2H])(c1ccc2c3c(c(=O)[nH]c2c1F)CCO3)N1CCN(c2ccc(C(=O)NC)nc2F)CC1 (single isomer, unassigned) [Example 24]	16.3	32.9	22.9	24.4	3	3.8	
[2H]C1([2H])Cc2c(c3ccc(CN4CCN(c5ccc(C(=O)NC)nc5F)CC4)c(F)c3[nH]c2=O)O1 (single isomer, unassigned) [Example 31, 6-fluoro-5-(4-((6-fluoro-4-oxo-2,3,4,5-tetrahydrofuro[3,2-c]quinolin-7-yl-2,2-d2)methyl)piperazin-1-yl)-N-methylpicolinamide]					6.9	7.7	
[2H]C1([2H])COc2c1c(=O)[nH]c1c(F)c(CN3CCN(c4ccc(C(=O)NC)nc4F)CC3)ccc21 (single isomer, unassigned) [Example 32, 6-fluoro-5-(4-((6-fluoro-4-oxo-2,3,4,5-tetrahydrofuro[3,2-c]quinolin-7-yl-3,3-d2)methyl)piperazin-1-yl)-N-methylpicolinamide]					9.2	5.4	
CNC(=O)c1ccc(N2CCN(Cc3ccc4c5c(c(=O)[nH]c4c3F)CCC5)CC2)c(F)n1 [Comp. Ex. 4, reference compound]	16.3	20.6			1.1	1	
CNC(=O)c1ccc(N2CCN(Cc3ccc4c([nH]c(=O)c5ccnn54)c3F)CC2)cn1 [Example 2]					68		
O=C(NC1CC1)c1ccc(N2CCN(Cc3ccc4c([nH]c(=O)c5ccnn54)c3F)CC2)c(F)n1 [Example 3]					4.3	9.1	
Cc1cc2c(=O)[nH]c3c(F)c(CN4CCN(c5ccc(C(=O)NC6CC6)nc5F)CC4)ccc3n2n1 [Example 4]	4.4	8.6			1.2	2.1	1.96
CNC(=O)c1ccc(N2CCN(Cc3ccc4c([nH]c(=O)c5cc(C)nn54)c3F)CC2)c(F)n1 [Example 5]	10.3	21.2			2.9	4.2	2.06
CNC(=O)c1ccc(N2CCN(Cc3ccc4c([nH]c(=O)c5ccoc54)c3F)CC2)c(F)n1 [Example 6, 6-fluoro-5-[4-({6-fluoro-4-oxo-5H-furo[3,2-c]quinolin-7-yl}methyl)piperazin-1-yl]-N-methylpyridine-2-carboxamide]					2.1	3.8	
CNC(=O)c1ccc(N2CCN(Cc3ccc4c([nH]c(=O)n5cccc45)c3F)CC2)c(F)n1 [Example 7, 6-fluoro-5-[4-({7-fluoro-5-oxo-6H-pyrrolo[1,2-c]quinazolin-8-yl}methyl)piperazin-1-yl]-N-methylpyridine-2-carboxamide]					1.3	2.1	
CNC(=O)c1ccc(N2CCN(Cc3ccc4c([nH]c(=O)c5c(Cl)cnn54)c3F)CC2)c(F)n1 [Example 8]					0.94	1.8	
CNC(=O)c1ccc(N2CCN(Cc3ccc4c([nH]c(=O)c5cccn54)c3F)CC2)c(F)n1 [Example 10, 6-fluoro-5-[4-({6-fluoro-4-oxo-5H-pyrrolo[1,2-a]quinoxalin-7-yl}methyl)piperazin-1-yl]-N-methylpyridine-2-carboxamide]					0.3	0.64	
O=C(NCC(F)F)c1ccc(N2CCN(Cc3ccc4c([nH]c(=O)c5ccoc54)c3F)CC2)c(F)n1 [Example 11]					0.86	1.1	
O=C(NCC(F)F)c1ccc(N2CCN(Cc3ccc4c([nH]c(=O)c5ccnn54)c3F)CC2)c(F)n1 [Example 12]					0.9	1.6	
Cc1cc2c(=O)[nH]c3c(F)c(CN4CCN(c5ccc(C(=O)NCC(F)F)nc5F)CC4)ccc3n2n1 [Example 13]					1.2	1.4	
O=C(NC1CC1)c1ccc(N2CCN(Cc3ccc4c([nH]c(=O)c5ccoc54)c3F)CC2)c(F)n1 [Example 14]					0.68	1.2	
O=C(NCC(F)F)c1ccc(N2CCN(Cc3ccc4c5c(c(=O)[nH]c4c3F)CCO5)CC2)c(F)n1 [Example 15]					0.75	1.9	
O=C(NC1CC1)c1ccc(N2CCN(Cc3ccc4c5c(c(=O)[nH]c4c3F)CCO5)CC2)c(F)n1 [Example 16]					3.1	5.1	
COCCNC(=O)c1ccc(N2CCN(Cc3ccc4c([nH]c(=O)c5cc(C)nn54)c3F)CC2)c(F)n1 [Example 17]					1.3	1.5	
CNC(=O)c1ccc(N2CCN(Cc3ccc4c([nH]c(=O)c5cnn(C)c54)c3F)CC2)c(F)n1 [Example 19, 6-fluoro-5-[4-({6-fluoro-1-methyl-4-oxo-5H-pyrazolo[4,3-c]quinolin-7-yl}methyl)piperazin-1-yl]-N-methylpyridine-2-carboxamide]					31	57	
CNC(=O)c1ccc(N2CCN(Cc3ccc4c([nH]c(=O)c5cn(C)nc54)c3F)CC2)c(F)n1 [Example 20, 6-fluoro-5-[4-({6-fluoro-2-methyl-4-oxo-5H-pyrazolo[4,3-c]quinolin-7-yl}methyl)piperazin-1-yl]-N-methylpyridine-2-carboxamide]					4	6.2	
Cc1cc2c(=O)[nH]c3c(F)c(CN4CCN(c5ccc(C(=O)NC6COC6)nc5F)CC4)ccc3n2n1 [Example 21]					0.66	1.3	
CNC(=O)c1ccc(N2CCN(Cc3ccc4c([nH]c(=O)c5c(C)cnn54)c3F)CC2)c(F)n1 [Example 23]					2.7	4.7	
CNC(=O)c1ccc(N2CCN(Cc3ccc4c([nH]c(=O)c5cc(F)nn54)c3F)CC2)c(F)n1 [Example 25, 5-[4-({2,6-difluoro-4-oxo-5H-pyrazolo[1,5-a]quinoxalin-7-yl}methyl)piperazin-1-yl]-6-fluoro-N-methylpyridine-2-carboxamide]					1.4	1.8	
CNC(=O)c1ccc(N2CCN(Cc3ccc4c5c(c(=O)[nH]c4c3F)CCO5)CC2)cn1 [Example 26]					6	7.5	
CNC(=O)c1nc(C)c(N2CCN(Cc3ccc4c5c(c(=O)[nH]c4c3F)CCO5)CC2)cc1F [Example 27]					14	21	
CNC(=O)c1ccc(N2CCN(Cc3ccc4c([nH]c(=O)c5c(F)cnn54)c3F)CC2)c(F)n1 [Example 28, 5-[4-({3,6-difluoro-4-oxo-5H-pyrazolo[1,5-a]quinoxalin-7-yl}methyl)piperazin-1-yl]-6-fluoro-N-methylpyridine-2-carboxamide]					0.57	0.84	
CNC(=O)c1ccc(N2CCN(Cc3ccc4c5c(c(=O)[nH]c4c3F)CCO5)CC2)c(C)n1 [Example 29]					2.1	4.3	
